Tests used:
Assay in all cases: KINOMEscan competition binding
Conditions in all cases: compound 10.0 µM
[1] = biological target: JAK1 JH2 pseudokinase (human) (UniProt P23458)
CAMKK1 (human) = CAMKK1 (human) (UniProt Q8N5S9)
CDC42BPA (human) = CDC42BPA (human) (UniProt Q5VT25)
RPS6KA1 KD1 (human) = RPS6KA1 KD1 (human) (UniProt Q15418)
PRKAA1 (human) = PRKAA1 (human) (UniProt Q13131)
SRPK2 (human) = SRPK2 (human) (UniProt P78362)
MAPK3 (human) = MAPK3 (human) (UniProt P27361)
MYO3A (human) = MYO3A (human) (UniProt Q8NEV4)
CLK3 (human) = CLK3 (human) (UniProt P49761)
CSNK1A1L (human) = CSNK1A1L (human) (UniProt Q8N752)
CAMK2D (human) = CAMK2D (human) (UniProt Q13557)
STK25 (human) = STK25 (human) (UniProt O00506)
STK16 (human) = STK16 (human) (UniProt O75716)
CDK16 (human) = CDK16 (human) (UniProt Q00536)
CLK1 (human) = CLK1 (human) (UniProt P49759)
MST1R (human) = MST1R (human) (UniProt Q04912)
MST1R (human), sequence (Q04912 whole entry, looked up): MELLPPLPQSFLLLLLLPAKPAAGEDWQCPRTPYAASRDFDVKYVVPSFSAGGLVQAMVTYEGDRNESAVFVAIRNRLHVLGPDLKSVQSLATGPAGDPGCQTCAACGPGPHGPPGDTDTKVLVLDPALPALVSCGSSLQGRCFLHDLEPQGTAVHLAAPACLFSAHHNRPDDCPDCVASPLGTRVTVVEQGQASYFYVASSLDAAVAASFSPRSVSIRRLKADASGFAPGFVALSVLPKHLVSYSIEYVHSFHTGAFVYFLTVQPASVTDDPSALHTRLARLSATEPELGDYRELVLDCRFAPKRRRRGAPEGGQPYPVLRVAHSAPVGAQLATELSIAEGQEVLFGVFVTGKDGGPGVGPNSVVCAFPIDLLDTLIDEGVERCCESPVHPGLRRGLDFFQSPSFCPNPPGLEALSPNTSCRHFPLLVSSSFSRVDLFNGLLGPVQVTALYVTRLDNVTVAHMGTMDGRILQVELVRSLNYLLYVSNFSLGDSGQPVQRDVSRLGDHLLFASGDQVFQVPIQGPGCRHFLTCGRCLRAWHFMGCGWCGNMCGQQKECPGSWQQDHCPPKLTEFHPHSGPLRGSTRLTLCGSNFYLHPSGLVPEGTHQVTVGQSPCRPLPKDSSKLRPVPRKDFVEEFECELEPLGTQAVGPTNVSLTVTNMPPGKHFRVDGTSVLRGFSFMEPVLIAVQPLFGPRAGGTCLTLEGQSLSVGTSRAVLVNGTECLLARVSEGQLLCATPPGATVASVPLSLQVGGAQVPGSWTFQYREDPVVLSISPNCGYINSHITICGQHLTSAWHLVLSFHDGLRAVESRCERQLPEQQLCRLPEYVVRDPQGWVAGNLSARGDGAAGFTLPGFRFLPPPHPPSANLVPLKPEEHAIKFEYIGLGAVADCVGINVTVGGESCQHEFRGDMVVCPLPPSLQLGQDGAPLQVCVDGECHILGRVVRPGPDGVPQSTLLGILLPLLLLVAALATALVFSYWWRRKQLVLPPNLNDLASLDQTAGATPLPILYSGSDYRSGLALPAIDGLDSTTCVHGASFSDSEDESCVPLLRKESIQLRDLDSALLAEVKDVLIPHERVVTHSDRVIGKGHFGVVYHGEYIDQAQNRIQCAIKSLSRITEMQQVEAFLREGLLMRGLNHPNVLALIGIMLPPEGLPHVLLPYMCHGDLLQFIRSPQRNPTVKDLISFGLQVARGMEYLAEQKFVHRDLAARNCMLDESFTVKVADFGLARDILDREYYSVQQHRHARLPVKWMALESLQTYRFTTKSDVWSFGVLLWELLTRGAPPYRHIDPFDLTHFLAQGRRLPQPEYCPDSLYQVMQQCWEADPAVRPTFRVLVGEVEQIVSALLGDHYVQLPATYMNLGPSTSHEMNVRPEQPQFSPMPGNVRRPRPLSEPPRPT

STK38L (human) = STK38L (human) (UniProt Q9Y2H1)
MAP4K2 (human) = MAP4K2 (human) (UniProt Q12851)
AXL (human) = AXL (human) (UniProt P30530)
PRKX (human) = PRKX (human) (UniProt P51817)
INSRR (human) = INSRR (human) (UniProt P14616)
INSRR (human), sequence (P14616 whole entry, looked up): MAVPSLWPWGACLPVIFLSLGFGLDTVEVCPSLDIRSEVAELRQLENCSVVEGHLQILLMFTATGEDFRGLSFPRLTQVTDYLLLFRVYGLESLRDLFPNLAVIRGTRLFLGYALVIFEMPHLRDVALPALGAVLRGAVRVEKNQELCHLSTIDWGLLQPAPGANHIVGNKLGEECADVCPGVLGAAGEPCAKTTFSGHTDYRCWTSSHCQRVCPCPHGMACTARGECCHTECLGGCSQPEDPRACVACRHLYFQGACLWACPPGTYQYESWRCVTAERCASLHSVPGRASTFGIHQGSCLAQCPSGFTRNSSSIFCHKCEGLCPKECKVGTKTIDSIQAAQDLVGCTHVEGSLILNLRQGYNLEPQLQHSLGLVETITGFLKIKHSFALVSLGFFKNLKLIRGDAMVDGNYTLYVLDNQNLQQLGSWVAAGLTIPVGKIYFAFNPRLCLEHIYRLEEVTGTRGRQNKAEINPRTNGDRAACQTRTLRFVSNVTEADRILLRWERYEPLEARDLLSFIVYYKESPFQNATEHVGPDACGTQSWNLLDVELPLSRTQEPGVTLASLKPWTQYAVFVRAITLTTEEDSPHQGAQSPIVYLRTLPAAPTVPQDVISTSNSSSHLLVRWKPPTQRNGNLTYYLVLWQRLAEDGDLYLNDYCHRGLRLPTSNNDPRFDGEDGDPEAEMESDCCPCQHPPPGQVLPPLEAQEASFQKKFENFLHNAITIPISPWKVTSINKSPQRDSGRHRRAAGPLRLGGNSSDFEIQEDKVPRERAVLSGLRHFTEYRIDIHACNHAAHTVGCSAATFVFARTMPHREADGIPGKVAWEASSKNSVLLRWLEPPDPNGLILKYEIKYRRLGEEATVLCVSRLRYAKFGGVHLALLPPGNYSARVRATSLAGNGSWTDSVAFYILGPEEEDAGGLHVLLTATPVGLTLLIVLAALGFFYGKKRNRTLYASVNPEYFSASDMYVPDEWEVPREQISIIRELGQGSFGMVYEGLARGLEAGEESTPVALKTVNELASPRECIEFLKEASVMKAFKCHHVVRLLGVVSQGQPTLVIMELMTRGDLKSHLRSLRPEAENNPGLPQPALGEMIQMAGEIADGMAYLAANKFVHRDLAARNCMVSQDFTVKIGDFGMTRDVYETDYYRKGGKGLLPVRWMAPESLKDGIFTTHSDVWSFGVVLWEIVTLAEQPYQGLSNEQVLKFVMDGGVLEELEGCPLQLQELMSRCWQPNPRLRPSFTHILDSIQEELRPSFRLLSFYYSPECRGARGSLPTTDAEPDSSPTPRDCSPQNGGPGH

ROS1 (human) = ROS1 (human) (UniProt P08922)
SIK2 (human) = SIK2 (human) (UniProt Q9H0K1)
TGFBR2 (human) = TGFBR2 (human) (UniProt P37173)
TGFBR2 (human), sequence (P37173 whole entry, looked up): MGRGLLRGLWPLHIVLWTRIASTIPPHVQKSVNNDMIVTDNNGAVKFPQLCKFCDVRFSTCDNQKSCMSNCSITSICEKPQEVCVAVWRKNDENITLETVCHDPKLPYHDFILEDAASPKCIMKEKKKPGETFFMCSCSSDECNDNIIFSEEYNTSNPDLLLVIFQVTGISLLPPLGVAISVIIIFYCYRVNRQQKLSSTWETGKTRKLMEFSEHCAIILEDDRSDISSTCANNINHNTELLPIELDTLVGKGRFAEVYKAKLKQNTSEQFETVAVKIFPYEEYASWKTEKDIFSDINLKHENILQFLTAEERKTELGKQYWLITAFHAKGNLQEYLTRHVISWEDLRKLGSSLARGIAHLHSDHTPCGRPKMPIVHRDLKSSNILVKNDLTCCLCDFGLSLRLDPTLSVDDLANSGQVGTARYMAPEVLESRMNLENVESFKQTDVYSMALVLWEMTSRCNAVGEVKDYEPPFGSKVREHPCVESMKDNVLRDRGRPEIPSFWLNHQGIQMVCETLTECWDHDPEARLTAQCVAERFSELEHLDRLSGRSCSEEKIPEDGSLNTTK

NEK6 (human) = NEK6 (human) (UniProt Q9HC98)
ZAP70 (human) = ZAP70 (human) (UniProt P43403)
ALK (human) = ALK (human) (UniProt Q9UM73)
SYK (human) = SYK (human) (UniProt P43405)
GSK3A (human) = GSK3A (human) (UniProt P49840)
NEK9 (human) = NEK9 (human) (UniProt Q8TD19)
PRKACB (human) = PRKACB (human) (UniProt P22694)
MARK1 (human) = MARK1 (human) (UniProt Q9P0L2)
MARK4 (human) = MARK4 (human) (UniProt Q96L34)
[2] = biological target: JAK3 JH1 catalytic (human) (UniProt P52333)
CDK9 (human) = CDK9 (human) (UniProt P50750)
EPHA3 (human) = EPHA3 (human) (UniProt P29320)
SLK (human) = SLK (human) (UniProt Q9H2G2)
SLK (human), sequence (Q9H2G2 whole entry, looked up): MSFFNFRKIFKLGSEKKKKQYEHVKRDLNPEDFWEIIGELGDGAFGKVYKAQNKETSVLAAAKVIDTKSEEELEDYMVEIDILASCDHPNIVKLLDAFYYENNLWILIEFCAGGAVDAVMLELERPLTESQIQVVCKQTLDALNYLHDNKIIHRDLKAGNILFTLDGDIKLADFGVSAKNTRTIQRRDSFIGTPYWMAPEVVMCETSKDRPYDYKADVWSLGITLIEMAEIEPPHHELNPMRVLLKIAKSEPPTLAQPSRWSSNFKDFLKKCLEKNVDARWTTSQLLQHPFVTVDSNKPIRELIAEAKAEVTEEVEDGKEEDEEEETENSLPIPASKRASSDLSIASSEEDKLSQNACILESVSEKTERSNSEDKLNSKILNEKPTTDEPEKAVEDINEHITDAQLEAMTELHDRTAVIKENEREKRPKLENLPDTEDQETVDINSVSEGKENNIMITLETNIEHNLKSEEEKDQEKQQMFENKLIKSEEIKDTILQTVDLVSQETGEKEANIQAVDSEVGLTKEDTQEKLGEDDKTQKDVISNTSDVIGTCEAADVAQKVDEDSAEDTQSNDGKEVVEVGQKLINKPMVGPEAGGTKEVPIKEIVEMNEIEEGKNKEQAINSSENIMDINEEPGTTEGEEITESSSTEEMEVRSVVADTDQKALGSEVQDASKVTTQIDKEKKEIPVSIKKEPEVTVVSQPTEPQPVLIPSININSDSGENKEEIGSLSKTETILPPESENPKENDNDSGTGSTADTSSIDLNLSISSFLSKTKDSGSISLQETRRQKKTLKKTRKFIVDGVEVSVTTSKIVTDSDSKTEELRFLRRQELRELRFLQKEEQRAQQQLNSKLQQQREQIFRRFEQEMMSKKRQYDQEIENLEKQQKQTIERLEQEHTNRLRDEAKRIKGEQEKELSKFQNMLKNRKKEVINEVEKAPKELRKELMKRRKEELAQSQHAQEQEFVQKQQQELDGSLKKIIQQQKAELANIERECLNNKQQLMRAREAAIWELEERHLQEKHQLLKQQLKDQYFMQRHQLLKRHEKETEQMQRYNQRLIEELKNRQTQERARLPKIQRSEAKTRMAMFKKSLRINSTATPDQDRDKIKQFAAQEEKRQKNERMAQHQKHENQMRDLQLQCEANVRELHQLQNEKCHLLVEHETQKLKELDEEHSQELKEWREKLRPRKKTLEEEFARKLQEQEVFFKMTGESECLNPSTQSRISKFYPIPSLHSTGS

IKBKE (human) = IKBKE (human) (UniProt Q14164)
LATS2 (human) = LATS2 (human) (UniProt Q9NRM7)
MARK2 (human) = MARK2 (human) (UniProt Q7KZI7)

PRKAA1 (human), sequence (Q13131 whole entry, looked up): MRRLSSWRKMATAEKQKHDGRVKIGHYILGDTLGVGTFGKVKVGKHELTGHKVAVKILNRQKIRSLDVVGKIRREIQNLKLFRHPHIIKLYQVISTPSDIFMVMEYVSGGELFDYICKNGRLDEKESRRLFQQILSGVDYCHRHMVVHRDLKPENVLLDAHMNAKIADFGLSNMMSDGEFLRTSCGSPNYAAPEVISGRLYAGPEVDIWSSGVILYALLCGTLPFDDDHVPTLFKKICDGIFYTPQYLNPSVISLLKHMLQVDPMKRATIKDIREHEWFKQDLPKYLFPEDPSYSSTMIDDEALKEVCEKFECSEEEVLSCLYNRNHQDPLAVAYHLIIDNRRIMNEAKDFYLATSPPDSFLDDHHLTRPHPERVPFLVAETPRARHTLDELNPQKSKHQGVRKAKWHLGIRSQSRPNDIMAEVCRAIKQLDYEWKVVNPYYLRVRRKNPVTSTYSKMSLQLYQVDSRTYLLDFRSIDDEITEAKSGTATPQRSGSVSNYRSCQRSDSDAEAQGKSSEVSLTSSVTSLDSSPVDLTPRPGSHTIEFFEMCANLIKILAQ

SMILES | kinase still bound, per cent of control [1] | kinase still bound, per cent of control (CAMKK1 (human)) | kinase still bound, per cent of control (CDC42BPA (human)) | kinase still bound, per cent of control (RPS6KA1 KD1 (human)) | kinase still bound, per cent of control (PRKAA1 (human)) | kinase still bound, per cent of control (SRPK2 (human)) | kinase still bound, per cent of control (MAPK3 (human)) | kinase still bound, per cent of control (MYO3A (human)) | kinase still bound, per cent of control (CLK3 (human)) | kinase still bound, per cent of control (CSNK1A1L (human)) | kinase still bound, per cent of control (CAMK2D (human)) | kinase still bound, per cent of control (STK25 (human)) | kinase still bound, per cent of control (STK16 (human)) | kinase still bound, per cent of control (CDK16 (human)) | kinase still bound, per cent of control (CLK1 (human)) | kinase still bound, per cent of control (MST1R (human)) | kinase still bound, per cent of control (STK38L (human)) | kinase still bound, per cent of control (MAP4K2 (human)) | kinase still bound, per cent of control (AXL (human)) | kinase still bound, per cent of control (PRKX (human)) | further results
Cc1ccc(C(=O)Nc2cccc(C(F)(F)F)c2)cc1Nc1cncc(C(N)=O)c1 | 100% | 100% | 100% | 100% | 100% | 100% | 100% | 100% | 100% | 100% | 100% | 100% | 100% | 100% | 100% | 100% | 100% | 100% | 100% | 100% | kinase still bound, per cent of control (INSRR (human)): 100%; kinase still bound, per cent of control (ROS1 (human)): 100%; kinase still bound, per cent of control (SIK2 (human)): 100%; kinase still bound, per cent of control (TGFBR2 (human)): 100%; kinase still bound, per cent of control (NEK6 (human)): 100%; kinase still bound, per cent of control (ZAP70 (human)): 100%; kinase still bound, per cent of control (ALK (human)): 100%; kinase still bound, per cent of control (SYK (human)): 100%; kinase still bound, per cent of control (GSK3A (human)): 100%; kinase still bound, per cent of control (NEK9 (human)): 100%; kinase still bound, per cent of control (PRKACB (human)): 100%; kinase still bound, per cent of control (MARK1 (human)): 100%; kinase still bound, per cent of control (MARK4 (human)): 100%; kinase still bound, per cent of control [2]: 100%; kinase still bound, per cent of control (CDK9 (human)): 100%; kinase still bound, per cent of control (EPHA3 (human)): 8.8%; kinase still bound, per cent of control (SLK (human)): 100%; kinase still bound, per cent of control (IKBKE (human)): 100%; kinase still bound, per cent of control (LATS2 (human)): 100%; kinase still bound, per cent of control (MARK2 (human)): 100%
CCCS(=O)(=O)Nc1ccc(F)c(C(=O)c2c[nH]c3ncc(-c4ccc(Cl)cc4)cc23)c1F | 100% | 86% | 80% | 57% | 89% | 100% | 100% | 57% | 92% | 100% | 100% | 100% | 84% | 96% | 70% | 100% | 100% | 59% | 8.4% | 100% | kinase still bound, per cent of control (INSRR (human)): 73%; kinase still bound, per cent of control (ROS1 (human)): 100%; kinase still bound, per cent of control (SIK2 (human)): 61%; kinase still bound, per cent of control (TGFBR2 (human)): 2.5%; kinase still bound, per cent of control (NEK6 (human)): 100%; kinase still bound, per cent of control (ZAP70 (human)): 90%; kinase still bound, per cent of control (ALK (human)): 62%; kinase still bound, per cent of control (SYK (human)): 66%; kinase still bound, per cent of control (GSK3A (human)): 54%; kinase still bound, per cent of control (NEK9 (human)): 98%; kinase still bound, per cent of control (PRKACB (human)): 100%; kinase still bound, per cent of control (MARK1 (human)): 100%; kinase still bound, per cent of control (MARK4 (human)): 100%; kinase still bound, per cent of control [2]: 83%; kinase still bound, per cent of control (CDK9 (human)): 100%; kinase still bound, per cent of control (EPHA3 (human)): 44%; kinase still bound, per cent of control (SLK (human)): 1.4%; kinase still bound, per cent of control (IKBKE (human)): 100%; kinase still bound, per cent of control (LATS2 (human)): 75%; kinase still bound, per cent of control (MARK2 (human)): 69%
